Measured values from publication PMC6627609, “Targeting Quorum Sensing: High-Throughput Screening to Identify Novel LsrK Inhibitors” (International Journal of Molecular Sciences, 2019).
Structures can show the parent of a compound that is named as a salt.

These compounds were tested against LsrK (Salmonella typhimurium, UniProt Q8ZKQ6) (assay: biochemical). Details: not given.
Assay type: biochemical, S. typhimurium

Chain of LsrK (Q8ZKQ6 whole entry): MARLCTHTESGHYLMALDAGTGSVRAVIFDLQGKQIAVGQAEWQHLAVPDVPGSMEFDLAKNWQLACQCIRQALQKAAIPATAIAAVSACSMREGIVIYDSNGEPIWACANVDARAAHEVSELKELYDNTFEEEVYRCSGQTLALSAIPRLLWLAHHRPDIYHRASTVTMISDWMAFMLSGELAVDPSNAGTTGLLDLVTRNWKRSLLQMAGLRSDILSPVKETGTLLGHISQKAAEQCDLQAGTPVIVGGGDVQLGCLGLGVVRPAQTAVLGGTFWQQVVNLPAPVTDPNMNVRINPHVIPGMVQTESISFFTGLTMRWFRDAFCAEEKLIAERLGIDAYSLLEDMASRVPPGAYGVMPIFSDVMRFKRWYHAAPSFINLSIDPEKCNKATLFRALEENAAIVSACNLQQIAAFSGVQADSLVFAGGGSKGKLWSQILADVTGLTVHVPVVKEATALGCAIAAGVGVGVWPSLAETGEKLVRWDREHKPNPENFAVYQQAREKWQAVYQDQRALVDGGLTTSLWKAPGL

Compound	inhibition at 50 µM
Cc1cc(OC(=O)c2c(C)cc(O)cc2O)cc(O)c1C(=O)O [LECANORIC ACID]	0%
COC(=O)c1c(C)c2c(c(C)c1O)OC(=O)c1c(C)c(Cl)c(O)c(Cl)c1O2 [LEOIDIN]	83%
Nc1nc2c(c(=O)[nH]1)N(C=O)C(CNc1ccc(C(=O)N[C@@H](CCC(=O)O)C(=O)O)cc1)CN2 (some centres unmarked) [LEUCOVORIN CALCIUM]	5%
CC(C)(C)NC[C@H](O)c1ccc(O)c(CO)c1 [LEVALBUTEROL HYDROCHLORIDE]	8%
c1ccc([C@H]2CN3CCSC3=N2)cc1 [LEVAMISOLE HYDROCHLORIDE]	1%
N[C@@H](Cc1ccc(O)c(O)c1)C(=O)O [LEVODOPA]	77%
C[C@H](N)[C@H](O)c1ccc(O)c(O)c1 [LEVONORDEFRIN]	123%
CCC[C@@H]1C[C@@H](C(=O)N[C@@H]([C@H]2O[C@H](SC)[C@H](O)[C@@H](O)[C@H]2O)[C@@H](C)O)N(C)C1 [LINCOMYCIN HYDROCHLORIDE]	0%
CCCCCc1c2c(cc(O)c1C(=O)O)OC(=O)c1c(cc(OC)cc1C(=O)CCCC)O2 [LOBARIC ACID]	98%
CN1[C@@H](CC(=O)c2ccccc2)CCC[C@H]1C[C@H](O)c1ccccc1 [LOBELINE HYDROCHLORIDE]	1%
CCn1cc(C(=O)O)c(=O)c2cc(F)c(N3CCNC(C)C3)c(F)c21 (centres unmarked) [LOMEFLOXACIN HYDROCHLORIDE]	0%
CCOC(=O)N1CCC(=C2c3ccc(Cl)cc3CCc3cccnc32)CC1 [LORATADINE]	2%
O=C(NC(=O)c1c(F)cccc1F)Nc1cc(Cl)c(OC(F)(F)C(F)C(F)(F)F)cc1Cl (centres unmarked) [LUFENURON]	2%
O=C(O)CCC1NCC2CC1CN1CCCCC21 (centres unmarked) [LUPANYL ACID HYDROCHLORIDE]	1%
NCc1ccc(S(N)(=O)=O)cc1 [MAFENIDE HYDROCHLORIDE]	1%
O=c1c2cc(O)c(O)cc2oc2cc(O)c([C@@H]3O[C@H](CO)[C@@H](O)[C@H](O)[C@H]3O)c(O)c12 [MANGIFERIN]	14%
COC(=O)Nc1nc2ccc(C(=O)c3ccccc3)cc2[nH]1 [MEBENDAZOLE]	1%
CCN(CCCCOC(=O)c1ccc(OC)c(OC)c1)C(C)Cc1ccc(OC)cc1 (centres unmarked) [MEBEVERINE HYDROCHLORIDE]	1%
Cc1ccc(Cl)c(Nc2ccccc2C(=O)O)c1Cl [MECLOFENAMATE SODIUM]	6%
COC(=O)C(N)CS (centres unmarked) [MECYSTEINE HYDROCHLORIDE]	112%
CC(=O)O[C@]1(C(C)=O)CC[C@H]2[C@@H]3C[C@H](C)C4=CC(=O)CC[C@]4(C)[C@H]3CC[C@@]21C [MEDROXYPROGESTERONE ACETATE]	1%
Cc1cccc(Nc2ccccc2C(=O)O)c1C [MEFENAMIC ACID]	1%
OC(c1cc(C(F)(F)F)nc2c(C(F)(F)F)cccc12)C1CCCCN1 (centres unmarked) [MEFLOQUINE]	32%

Compound	inhibition at 50 µM
CNC[C@H](O)[C@@H](O)[C@H](O)[C@H](O)CO [MEGLUMINE]	1%
COc1ccc2[nH]cc(CCNC(C)=O)c2c1 [MELATONIN]	1%
C=C1C[C@H]2[C@@H]3C=C(C)C4=CC(=O)CC[C@]4(C)[C@H]3CC[C@]2(C)[C@@]1(OC(C)=O)C(C)=O [MELENGESTROL ACETATE]	1%
OC[C@H]1O[C@@](CO)(O[C@H]2O[C@H](CO)[C@@H](O)[C@H](O)[C@H]2O)[C@@H](O[C@H]2O[C@H](CO)[C@@H](O)[C@H](O)[C@H]2O)[C@@H]1O [MELEZITOSE]	2%
Cc1cnc(NC(=O)C2=C(O)c3ccccc3S(=O)(=O)N2C)s1 [MELOXICAM SODIUM]	0%
C[N+]1(C)CCCC(OC(=O)C(O)(c2ccccc2)c2ccccc2)C1 (centres unmarked) [MEPENZOLATE BROMIDE]	3%
Cc1ccccc1OCC(O)CO (centres unmarked) [MEPHENESIN]	1%
Cc1cccc(C)c1NC(=O)C1CCCCN1C (centres unmarked) [MEPIVACAINE HYDROCHLORIDE]	15%
S=c1[nH]cnc2nc[nH]c12 [MERCAPTOPURINE]	1%
Nc1ccc(O)c(C(=O)O)c1 [MESALAMINE]	105%
CC(=O)Nc1cccc(O)c1 [METACETAMOL]	1%
CC(C)NCC(O)c1cc(O)cc(O)c1 (centres unmarked) [METAPROTERENOL]	3%
C[C@H](N)[C@H](O)c1cccc(O)c1 [METARAMINOL BITARTRATE]	9%
Cc1cc(C)cc(OCC2CNC(=O)O2)c1 (centres unmarked) [METAXALONE]	0%
CN1C[C@H](CNC(=O)OCc2ccccc2)C[C@@H]2c3cccc4c3c(cn4C)C[C@H]21 [METERGOLINE]	3%
C=C1c2cccc(O)c2C(=O)C2=C(O)[C@]3(O)C(=O)C(C(N)=O)=C(O)[C@@H](N(C)C)[C@@H]3[C@@H](O)[C@H]12 [METHACYCLINE HYDROCHLORIDE]	97%
C1N2CN3CN1CN(C2)C3 [METHENAMINE]	2%
COc1cccc(OC)c1C(=O)N[C@@H]1C(=O)N2[C@@H]1SC(C)(C)[C@@H]2C(=O)O [METHICILLIN SODIUM]	1%
COC(=O)c1cc(O)c(=O)c2c(O)c(O)ccc2c1 [METHYL 7-DESHYDROXYPYROGALLIN-4-CARBOXYLATE]	112%
COC(=O)c1c(C)cc(O)cc1O [METHYL ORSELLINATE]	0%
COc1c2c(cc3occ(-c4ccc5c(c4)OCO5)c(=O)c13)OC(C)(C)C=C2 [METHYL ROBUSTONE]	1%
CN(C)c1ccc2nc3ccc(=[N+](C)C)cc-3sc2c1 [METHYLENE BLUE]	3%
CC[C@@H](CO)NC(=O)[C@@H]1C=C2c3cccc4[nH]cc(c34)C[C@H]2N(C)C1 [METHYLERGONOVINE MALEATE]	1%

Compound	inhibition at 50 µM
Cc1cc(=O)[nH]c(=S)[nH]1 [METHYLTHIOURACIL]	4%
Cc1ccccc1N1C(=O)c2cc(S(N)(=O)=O)c(Cl)cc2NC1C (centres unmarked) [METOLAZONE]	1%
Cc1ncc([N+](=O)[O-])n1CCO [METRONIDAZOLE]	0%
CN(C)c1ccc(O)c2c1C[C@H]1C[C@H]3[C@H](N(C)C)C(O)=C(C(N)=O)C(=O)[C@@]3(O)C(O)=C1C2=O [MINOCYCLINE HYDROCHLORIDE]	71%
CO[C@@]12[C@H](COC(N)=O)C3=C(C(=O)C(C)=C(N)C3=O)N1C[C@@H]1N[C@@H]12 [MITOMYCIN C]	0%
NC(=O)C[S+]([O-])C(c1ccccc1)c1ccccc1 (centres unmarked) [MODAFINIL]	1%
CCOC(=O)[N-]c1cn(N2CCOCC2)n[o+]1 [MOLSIDOMINE]	0%
C[C@H]1C(=O)O[C@@H]2CCN3CC=C(COC(=O)[C@](C)(O)[C@]1(C)O)[C@H]23 [MONOCROTALINE]	111%
Cc1ccsc1/C=C/C1=NCCCN1C [MORANTEL CITRATE]	0%
O=c1c(O)c(-c2ccc(O)cc2O)oc2cc(O)cc(O)c12 [MORIN]	154%
CO[C@@]1(NC(=O)C(C(=O)O)c2ccc(O)cc2)C(=O)N2C(C(=O)O)=C(CSc3nnnn3C)CO[C@@H]21 (some centres unmarked) [MOXALACTAM DISODIUM]	1%
COc1c(-c2coc3cc4c(cc3c2=O)CC(O)C(C)(C)O4)ccc2c1C=CC(C)(C)O2 (centres unmarked) [MUNDULONE]	0%
CC1=CC2C(CC1=O)C(C)=CCC2C(C)C (centres unmarked) [MUUROLLADIE-3-ONE]	1%
COc1c(C)c2c(c(O)c1C/C=C(\C)CCC(=O)O)C(=O)OC2 [MYCOPHENOLIC ACID]	1%
c1cncc(C2=NCCC2)c1 [MYOSMINE]	2%
O=c1c(O)c(-c2cc(O)c(O)c(O)c2)oc2cc(O)cc(O)c12 [MYRICETIN]	14%
CCOc1ccc2ccccc2c1C(=O)N[C@@H]1C(=O)N2[C@@H]1SC(C)(C)[C@@H]2C(=O)O [NAFCILLIN SODIUM]	23%
COc1ccc2cc([C@H](C)CO)ccc2c1 [NAPROXOL]	0%
C[C@@H]1C/C=C/C=C/C=C/C=C/[C@H](O[C@@H]2O[C@H](C)[C@@H](O)[C@H](N)[C@@H]2O)C[C@@H]2O[C@](O)(C[C@@H](O)C[C@H]3O[C@@H]3/C=C/C(=O)O1)C[C@H](O)[C@H]2C(=O)O [NATAMYCIN]	12%
CC(C)[C@H]1CC[C@H](C(=O)N[C@H](Cc2ccccc2)C(=O)O)CC1 [NATEGLINIDE]	1%
CN1CCOC(c2ccccc2)c2ccccc2C1 (centres unmarked) [NEFOPAM]	1%
CC(C)=CCC/C(C)=C\CO [NEROL]	1%

Same assay, conditions: 50 µM

Compound	Inhibition (%)
Cc1occc(=O)c1O [LARIXINIC ACID]	1
C=C[C@@](C)(O)CC[C@H]1C(=C)C[C@H](OC(C)=O)[C@H]2C(C)(C)CCC[C@]12C [LARIXOL ACETATE]	3
C=C[C@@](C)(O)CC[C@H]1C(=C)C[C@H](O)[C@H]2C(C)(C)CCC[C@]12C [LARIXOL]	1
OC[C@H]1O[C@H](OCC2O[C@@H](O)[C@H](O)[C@@H](O)[C@@H]2O)[C@H](O)[C@@H](O)[C@H]1O (some centres unmarked) [MELIBIOSE]	3
O=C([O-])c1ccccc1-c1c2cc(Br)c(=O)cc-2oc2[c]([Hg+])c([O-])c(Br)cc12.[Na+].[Na+].[OH-] [MERBROMIN]	119
C=N[C@@H](C(=O)N[C@@H]1C(=O)N2[C@@H]1SC(C)(C)[C@@H]2C(=O)[O-])c1ccccc1.[Na+] [METAMPICILLIN SODIUM]	2
Cc1cc(C(C)(C)CC(C)(C)C)ccc1OCCOCC[N+](C)(C)Cc1ccccc1.[Cl-] [METHYLBENZETHONIUM CHLORIDE]	89
COc1cc(OC)c(C(C)=O)c(OC)c1 [METHYLXANTHOXYLIN]	4
Cl.Cl.O=C1c2c(O)ccc(O)c2C(=O)c2c(NCCNCCO)ccc(NCCNCCO)c21 [MITOXANTHRONE HYDROCHLORIDE]	2
CC(=O)Oc1cc(C(C)C)c(OCCN(C)C)cc1C.Cl [MOXISYLYTE HYDROCHORIDE]	2
CNCc1ccccc1.Cl [N-METHYLBENZYLAMINE HYDROCHLORIDE]	0
NC(N)=NC(=O)c1nc(Cl)c(N2CCCCCC2)nc1N [N.N-HEXAMETHYLENEAMILORIDE]	1
